Assay type in all cases: functional
Experiment [1] has as its target T1, Sentrin-specific protease 6 (Homo sapiens, UniProt Q9GZR1).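 Note: Luminescence-based dose-response confirmatory assay of SENP6 inhibition, following up an ultra-high-throughput screen.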
T1 sequence (Q9GZR1 whole entry): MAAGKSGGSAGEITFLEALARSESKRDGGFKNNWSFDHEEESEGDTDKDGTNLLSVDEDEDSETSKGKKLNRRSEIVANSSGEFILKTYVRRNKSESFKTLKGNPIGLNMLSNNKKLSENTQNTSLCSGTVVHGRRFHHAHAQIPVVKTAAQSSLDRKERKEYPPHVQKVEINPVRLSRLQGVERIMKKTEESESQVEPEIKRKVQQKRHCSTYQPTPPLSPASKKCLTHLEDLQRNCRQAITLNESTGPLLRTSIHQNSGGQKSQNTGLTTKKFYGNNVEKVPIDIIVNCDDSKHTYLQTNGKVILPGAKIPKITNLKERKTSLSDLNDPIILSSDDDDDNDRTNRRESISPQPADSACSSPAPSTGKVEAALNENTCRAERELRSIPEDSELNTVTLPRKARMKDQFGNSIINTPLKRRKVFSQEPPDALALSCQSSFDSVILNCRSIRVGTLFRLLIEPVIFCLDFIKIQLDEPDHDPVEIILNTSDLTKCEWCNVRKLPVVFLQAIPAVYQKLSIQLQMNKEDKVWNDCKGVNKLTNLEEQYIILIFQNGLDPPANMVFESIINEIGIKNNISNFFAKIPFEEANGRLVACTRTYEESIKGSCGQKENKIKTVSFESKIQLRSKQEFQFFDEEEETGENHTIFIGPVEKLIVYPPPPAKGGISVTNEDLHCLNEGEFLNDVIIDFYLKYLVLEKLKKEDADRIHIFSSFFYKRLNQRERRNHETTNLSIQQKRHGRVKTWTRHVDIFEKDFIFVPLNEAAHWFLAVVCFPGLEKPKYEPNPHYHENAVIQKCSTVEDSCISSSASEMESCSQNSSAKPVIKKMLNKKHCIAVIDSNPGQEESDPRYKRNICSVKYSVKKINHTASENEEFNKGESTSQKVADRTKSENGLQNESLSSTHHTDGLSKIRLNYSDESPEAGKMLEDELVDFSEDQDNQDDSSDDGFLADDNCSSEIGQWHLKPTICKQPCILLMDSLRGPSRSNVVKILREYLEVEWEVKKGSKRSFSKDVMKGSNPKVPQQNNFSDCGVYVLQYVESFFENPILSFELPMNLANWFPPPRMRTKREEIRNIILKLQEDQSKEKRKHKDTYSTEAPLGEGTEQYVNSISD

For the next experiment, the target named is T2, Caspase-3 (Homo sapiens, UniProt P42574).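 Note: Dose-response selectivity test against caspase-3 for candidate inhibitors of sentrin-specific proteases (SENPs).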
T2 sequence (P42574 whole entry): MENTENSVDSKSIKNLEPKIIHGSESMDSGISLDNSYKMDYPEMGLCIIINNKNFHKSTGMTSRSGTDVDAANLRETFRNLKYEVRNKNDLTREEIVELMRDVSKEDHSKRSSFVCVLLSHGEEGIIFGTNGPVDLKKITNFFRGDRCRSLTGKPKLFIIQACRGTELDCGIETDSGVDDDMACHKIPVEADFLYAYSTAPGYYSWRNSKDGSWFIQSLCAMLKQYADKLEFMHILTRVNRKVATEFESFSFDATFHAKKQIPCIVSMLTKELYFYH

The target in experiment [2] is T3, Sentrin-specific protease 8 (Homo sapiens, UniProt Q96LD8).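 Note: luminescence read-out of SENP8 inhibition, dose-response confirmation following an ultra-high-throughput screen.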
T3 sequence (Q96LD8 whole entry): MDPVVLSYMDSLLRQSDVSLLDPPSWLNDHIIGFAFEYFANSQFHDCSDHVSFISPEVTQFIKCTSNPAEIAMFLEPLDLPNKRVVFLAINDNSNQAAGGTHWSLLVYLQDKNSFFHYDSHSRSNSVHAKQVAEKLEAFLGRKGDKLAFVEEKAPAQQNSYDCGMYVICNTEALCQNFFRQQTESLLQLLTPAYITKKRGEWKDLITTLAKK

The target of experiment [3] is T4, Sentrin-specific protease 7 (Homo sapiens, UniProt Q9BQF6).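 Note: Luminescence-based dose-response confirmation of ultra-high-throughput screening hits, measuring inhibition of SENP7.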
T4 sequence (Q9BQF6 whole entry): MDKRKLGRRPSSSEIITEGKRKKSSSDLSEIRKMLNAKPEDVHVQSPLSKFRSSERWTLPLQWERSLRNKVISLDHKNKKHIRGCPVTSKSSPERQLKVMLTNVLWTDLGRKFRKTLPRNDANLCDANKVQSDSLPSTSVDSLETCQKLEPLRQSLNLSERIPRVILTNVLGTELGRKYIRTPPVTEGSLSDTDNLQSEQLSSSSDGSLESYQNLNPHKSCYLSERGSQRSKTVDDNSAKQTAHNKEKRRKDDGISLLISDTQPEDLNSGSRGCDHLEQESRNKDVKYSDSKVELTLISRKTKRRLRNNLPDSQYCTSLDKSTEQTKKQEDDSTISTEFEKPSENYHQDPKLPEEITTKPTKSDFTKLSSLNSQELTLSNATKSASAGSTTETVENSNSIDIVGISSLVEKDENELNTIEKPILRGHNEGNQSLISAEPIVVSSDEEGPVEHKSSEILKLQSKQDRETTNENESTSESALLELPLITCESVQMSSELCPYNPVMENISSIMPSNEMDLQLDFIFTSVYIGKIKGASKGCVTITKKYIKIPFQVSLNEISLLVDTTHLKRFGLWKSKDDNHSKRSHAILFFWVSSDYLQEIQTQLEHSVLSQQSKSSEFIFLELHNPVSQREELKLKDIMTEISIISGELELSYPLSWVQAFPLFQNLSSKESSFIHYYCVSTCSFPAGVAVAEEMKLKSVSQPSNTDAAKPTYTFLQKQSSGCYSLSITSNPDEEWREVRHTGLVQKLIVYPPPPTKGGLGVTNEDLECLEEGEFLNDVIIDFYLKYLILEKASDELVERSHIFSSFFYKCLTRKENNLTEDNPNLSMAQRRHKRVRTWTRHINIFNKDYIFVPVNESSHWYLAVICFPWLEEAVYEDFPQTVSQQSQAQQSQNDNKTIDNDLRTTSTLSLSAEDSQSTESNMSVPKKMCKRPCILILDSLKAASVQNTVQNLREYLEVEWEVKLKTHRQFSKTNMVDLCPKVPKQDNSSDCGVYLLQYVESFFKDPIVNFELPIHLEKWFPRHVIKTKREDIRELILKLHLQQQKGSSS

In experiment [4] the target is STE20-like serine/threonine-protein kinase (Homo sapiens, UniProt Q9H2G2).
Sequence of STE20-like serine/threonine-protein kinase (Q9H2G2 whole entry): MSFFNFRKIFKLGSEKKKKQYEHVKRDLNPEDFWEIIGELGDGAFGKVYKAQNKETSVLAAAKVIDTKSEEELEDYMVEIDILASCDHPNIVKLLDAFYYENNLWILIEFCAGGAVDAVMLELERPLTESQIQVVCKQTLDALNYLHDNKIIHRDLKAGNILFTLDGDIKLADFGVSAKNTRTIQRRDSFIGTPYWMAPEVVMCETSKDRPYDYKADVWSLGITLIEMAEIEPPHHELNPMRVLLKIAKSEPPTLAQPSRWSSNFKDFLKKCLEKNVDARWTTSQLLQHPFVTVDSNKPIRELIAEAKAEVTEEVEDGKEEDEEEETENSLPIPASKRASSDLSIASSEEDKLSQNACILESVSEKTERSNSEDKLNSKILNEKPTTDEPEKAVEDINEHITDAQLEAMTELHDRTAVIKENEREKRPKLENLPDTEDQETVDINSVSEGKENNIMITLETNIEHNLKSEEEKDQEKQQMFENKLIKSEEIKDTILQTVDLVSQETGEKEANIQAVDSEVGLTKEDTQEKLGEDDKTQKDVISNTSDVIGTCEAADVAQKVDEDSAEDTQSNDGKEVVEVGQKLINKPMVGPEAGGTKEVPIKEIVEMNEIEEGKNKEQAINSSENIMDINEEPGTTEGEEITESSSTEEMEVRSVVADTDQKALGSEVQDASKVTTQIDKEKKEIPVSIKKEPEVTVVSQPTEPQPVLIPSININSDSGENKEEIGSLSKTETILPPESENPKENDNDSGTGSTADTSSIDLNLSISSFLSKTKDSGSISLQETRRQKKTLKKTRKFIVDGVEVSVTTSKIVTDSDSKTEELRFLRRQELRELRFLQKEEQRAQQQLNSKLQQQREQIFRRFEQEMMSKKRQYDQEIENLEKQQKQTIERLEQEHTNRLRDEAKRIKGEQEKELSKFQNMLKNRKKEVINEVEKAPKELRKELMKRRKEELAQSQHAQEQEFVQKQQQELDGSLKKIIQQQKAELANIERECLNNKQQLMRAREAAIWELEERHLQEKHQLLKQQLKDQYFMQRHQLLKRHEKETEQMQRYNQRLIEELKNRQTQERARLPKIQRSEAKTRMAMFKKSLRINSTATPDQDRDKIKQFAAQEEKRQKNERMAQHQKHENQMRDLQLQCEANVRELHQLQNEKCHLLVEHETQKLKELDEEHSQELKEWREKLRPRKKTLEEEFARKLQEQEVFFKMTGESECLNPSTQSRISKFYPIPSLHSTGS
The target in experiment [5] is Testis-specific serine/threonine-protein kinase 2 (Homo sapiens, UniProt Q96PF2).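 Note: part of the Navigating the Kinome panel, target entry STK22B.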
Sequence of Testis-specific serine/threonine-protein kinase 2 (Q96PF2 whole entry): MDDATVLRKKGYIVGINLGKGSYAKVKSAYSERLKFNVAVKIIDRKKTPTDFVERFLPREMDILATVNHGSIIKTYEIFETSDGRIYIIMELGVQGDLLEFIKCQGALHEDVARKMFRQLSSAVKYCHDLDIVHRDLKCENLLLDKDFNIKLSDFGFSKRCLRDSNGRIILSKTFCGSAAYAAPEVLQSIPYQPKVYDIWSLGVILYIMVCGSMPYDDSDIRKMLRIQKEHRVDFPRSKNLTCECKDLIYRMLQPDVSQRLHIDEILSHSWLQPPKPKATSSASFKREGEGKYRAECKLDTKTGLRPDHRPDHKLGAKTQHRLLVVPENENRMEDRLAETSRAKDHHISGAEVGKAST

Active and inactive are the calls of the source. Cut-off read from the data, not from the text of the source, for most assays here: actives have a measured IC50 and inactives only a lower limit.

As to `C=CCNC1=C(Cl)C(=O)c2ccccc2C1=O`, the IC50 in experiment [1] is 9.07 µM (active); at Caspase-3, 3.62 µM (active); in experiment [2], 10.1 µM (active); in experiment [3], 23.9 µM (active).

For `CN(C)c1ccc(-c2nnc(-c3cccs3)o2)cc1`, the IC50 in experiment [1] is > 100 µM (inactive); on Caspase-3 it was 22.3 µM (active); in experiment [2], > 100 µM (inactive); in experiment [3], 12.9 µM (active).

Regarding `COc1ccc(C(=O)Nc2n[nH]c3ccc(-c4cn(Cc5ccccc5)nn4)cc23)cc1OC`, the values for the Ki in experiment [4] and in experiment [5] were 2 µM (active) and 0.0794 µM (active), respectively.

As a reminder, the IC50 is the midpoint of a concentration-inhibition curve. The Ki is a dissociation constant, usually derived from enzyme kinetics or from competition with a known ligand.

For the origin of these results see ChEMBL document CHEMBL1201862, “PubChem BioAssay data set” (2004).
